Data on 15 molecules can be found in patent US12655174B2, “Adenosine A3 receptor agonists, preparation methods and uses thereof” (ZHEJIANG VIMGREEN PHARMACEUTICALS, LTD., priority 2020, dated 2026).

pEC50: −log10 of the molar value.

Broadly, the pEC50 is the EC50 on a negative log10 scale, so that one unit is a factor of ten.

One data set has as its target T1, ADORA3 receptor (Homo sapiens, UniProt P0DMS8).
T1 sequence (P0DMS8 1-318): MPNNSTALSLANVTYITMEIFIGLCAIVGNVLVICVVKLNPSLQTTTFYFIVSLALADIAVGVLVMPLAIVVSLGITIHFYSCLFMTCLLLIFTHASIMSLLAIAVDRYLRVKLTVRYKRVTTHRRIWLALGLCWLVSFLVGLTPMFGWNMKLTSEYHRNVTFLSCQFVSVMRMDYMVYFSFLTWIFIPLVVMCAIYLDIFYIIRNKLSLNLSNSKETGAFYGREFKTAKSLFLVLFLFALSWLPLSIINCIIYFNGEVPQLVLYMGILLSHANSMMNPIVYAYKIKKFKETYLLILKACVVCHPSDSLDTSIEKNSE
As to the kind of experiment: Agonistic effect on adenosine A3 receptor by FLIPR assay (calcium flux assay). The following applies: agonist mode. Format: cell-based. As to the method:
Example 27: Agonistic Effect of Compound on Adenosine A3 Receptor by FLIPR Assay (Calcium Flux Assay)
First Day: Cell Inoculation
• 1) With regard to ADORA3 receptor, cultured cells were used for inoculation: the culture medium was aspirated and the cells were washed twice with 10 mL of DPBS. 2 mL of 0.05% EDTA-trypsin was added and the cells were incubated at 37° C. for 1 minute. Then 10 mL of the culture medium was added to stop the digestion and the cell suspension was transferred to a 50-mL tapered tube. • 2) The 50-mL tapered tube containing the various cells was centrifuged at 300 g for 5 minutes. • 3) A supernatant was aspirated and no cells should be aspirated. • 4) The cell precipitate was resuspended in 6-8 mL of the culture medium, and then 0.5 mL of the cells were taken out for cell counting by using a Vi-cell XR cell viability analyzer. • 5) The cell suspension was diluted to 1×10^6 cells/mL (20 μL of 20,000 cells per well) in the culture medium and the cells were inoculated into a cell plate (384-well Poly-D-lysine protein-coated plate, Greiner-781946). • 6) The plate was placed in a 37° C./5% CO2 incubator for 16-20 hours. Second Day: • 1) Preparation of 2×Fluo-4 Direct™ uptaking dye • a. Preparation of probenecid solution • 1 mL of FLIPR assay buffer was added to 77 mg of probenecid (provided by Fluo-4 Direct™ calcium assay kit) to be prepared into 250 mM of a probenecid solution. The fresh probenecid solution was used daily. • b. 2×(8 μM) Fluo-4 Direct™ loading dye (per 10 mL)
A vial of the Fluo-4 Direct™ crystal was thawed and then 10 mL of the FLTPR analytical buffer was added to the vial. Then 0.2 mL of 250 mM of a probe solution was added to every 10 mL Fluo-4 Direct™ crystal to a final assay concentration of 2.5 mM. The solution was vortexed and stood for >5 min at a dark place. 2×Fluo-4 Direct™ uptaking dye was freshly prepared daily. • 2) Compound preparation • a. Preparation of compound plate: all reference and test compounds were serially diluted 4-fold in 10 points by using an Echo liquid processor and then 900 nL of the diluted compounds were transferred to a compound plate. • b. 30 μL FLIPR analytical buffer was added to the compound plate and the plate was centrifuged at 300 g for 1 minute. • 3) FLIPR analysis • a. With regard to ADORA3 receptor: firstly, the cell plate was taken out from a culture box. The culture medium was then aspirated and 20 μL of the FLIPR analytical buffer was added. The cell plate was placed in an incubator for 45 minutes and at a room temperature for 15 minutes. • b. To run an experimental solution on […], 10 μL of the FLIPR analytical buffer was transferred from the compound plate to a cell plate, and then the fluorescent signal was read. Then 10 μL of a compound solution was transferred from the compound plate to the cell plate and the fluorescence signal was read. “Max−min” was calculated from Reader 91 to an allowed maximum value. • c. With regard to agonist: activation %=(RLU−LC)/(HC−LC)*100, • wherein RLU=relative light unit, allowed maximum signal was 91; HC=average signal of high concentration agonist; and LC=mean signal of DMSO well. • d. Data were fitted to a model “log (agonist) versus response-variable slope” by using GraphPad Prism 5 to determine an EC50 value. • e. […] 2. Test Result
For orientation: Calcium assays in cells follow changes in intracellular calcium, usually with a dye or a luminescent sensor.

Data set [1] addresses T2, ADORA3 receptor (CHO cells stably expressing ADORA3 receptor) (Homo sapiens, UniProt P0DMS8).
T2 construct: expressed in transfected cells
T2 sequence (P0DMS8 1-318): T1 sequence (P0DMS8 1-318)
Description: Effect of compound on intracellular cAMP level by adenosine A3 receptor agonism. The following applies: forskolin-stimulated. Type of data set: cell-based. A digest of the protocol: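 Agonism read as change in forskolin-stimulated cAMP by TR-FRET competition (Eu-cAMP tracer, ULight anti-cAMP antibody). Compound tested as 10 three-fold dilutions on ADORA3-CHO cells in buffer containing rolipram, incubated at 37 °C. Hill fit of % activation against log concentration gives EC50.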
(In general: cAMP levels reflect the balance of adenylyl cyclase and phosphodiesterase activity.)

Data set [2] in a line: Pharmacokinetic test of compound in SD rat. Type of data set: in vivo. To be noted: SD rats, intragastric administration (IG), cassette dosing. As to the method: Example 28: Pharmacokinetic Test of Compound in SD Rat
The animal species used in this experiment were SD rats. There were 3 animals per group. The rats were dosed in cassette format, i.e., multiple (1-6) different compounds were dosed simultaneously to the same group of the SD rats. The vehicle used for the drug was 5% DMSO+5% Solutl+90% ([…] methylcellulose M450), and the administration route was intragastric administration (IG).

On to `CNC(=O)[C@H]1OC(n2cnc3c(NCc4ccccn4)nc(-c4cncc(F)c4)nc32)[C@H](O)[C@@H]1O` (stereo in doubt) [compound 305, (2S,3S,4R,5S)-5-(2-(5-fluoropyridin-3-yl)-6-((pyridin-2-ylmethyl)amino)-9H-purin-9-yl)-3,4-dihydroxyl-N-methyltetrahydrofuran-2-carboxamide], for which the results for the pEC50 (at ADORA3 receptor; in data set [1]) were 7.96 and 8.56, respectively. In addition, in data set [2], the “AUC_D” value is 161.47 kg·ng·h/mL/mg.

As for `CNC(=O)[C@H]1O[C@@H](n2cnc3c(NCc4cc(C)ccn4)nc(-c4cncc(F)c4)nc32)[C@H](O)[C@@H]1O` [compound 71, (2S,3S,4R,5R)-5-(2-(5-fluoropyridin-3-yl)-6-(((4-methylpyridin-2-yl)methyl)amino)-9H-purin-9-yl)-3,4-dihydroxyl-N-methyltetrahydrofuran-2-carboxamide], the pEC50 at ADORA3 receptor is 8.71; in data set [1], over 9.29. Also, the “AUC_D” value in data set [2] is 757.44 kg·ng·h/mL/mg.

For `CNC(=O)[C@H]1O[C@@H](n2cnc3c(NCc4cccc(C)n4)nc(-c4cncc(F)c4)nc32)[C@H](O)[C@@H]1O` [compound 106], the pEC50 at ADORA3 receptor was 7.75; in data set [1], 8.52. For the same molecule, the “AUC_D” value in data set [2] was 521.57 kg·ng·h/mL/mg.

As for `CNC(=O)[C@H]1O[C@@H](n2cnc3c(NCc4cccc(C)n4)nc(-c4cncc(Cl)c4)nc32)[C@H](O)[C@@H]1O` [compound 112], the pEC50 at ADORA3 receptor was 7.35; in data set [1], 8.45. Moreover, in data set [2], the “AUC_D” value was 1790.18 kg·ng·h/mL/mg.

On to `CNC(=O)[C@H]1O[C@@H](n2cnc3c(NCc4cccc(OC)n4)nc(-c4cncc(Cl)c4)nc32)[C@H](O)[C@@H]1O` [compound 159], for which the pEC50 is 7.23 at ADORA3 receptor and 8.35 in data set [1].

Turning to `CNC(=O)[C@H]1O[C@@H](n2cnc3c(NCc4cc(C)ccc4Cl)nc(-c4cncc(Cl)c4)nc32)[C@H](O)[C@@H]1O` [compound 177, (2S,3S,4R,5R)-5-(6-(2-chloro-5-methylbenzylamino)-2-(5-chloropyridin-3-yl)-9H-purin-9-yl)-3,4-dihydroxyl-N-methyl-tetrahydrofuran-2-formamide], the negative-log EC50 (pEC50) was 7.15 at ADORA3 receptor and 8.68 in data set [1]. For the same molecule, the “AUC_D” value in data set [2] stood at 5247.70 kg·ng·h/mL/mg.

`CNC(=O)[C@H]1O[C@@H](n2cnc3c(NCc4cc(Cl)ccn4)nc(-c4cncc(F)c4)nc32)[C@H](O)[C@@H]1O` [compound 183, (2S,3S,4R,5R)-5-(6-((4-chloropyridin-2-yl)methylamino)-2-(5-fluoropyridin-3-yl)-9H-purin-9-yl)-3,4-dihydroxyl-N-methyl-tetrahydrofuran-2-formamide]: the negative-log EC50 (pEC50) is 8.04 on ADORA3 receptor and over 9.29 in data set [1]. The “AUC_D” value in data set [2] is 947.63 kg·ng·h/mL/mg.

On to `CNC(=O)[C@H]1O[C@@H](n2cnc3c(NCc4cc(Cl)ccn4)nc(-c4cncc(Cl)c4)nc32)[C@H](O)[C@@H]1O` [compound 184, (2S,3S,4R,5R)-5-(6-((4-chloropyridin-2-yl)methylamino)-2-(5-chloropyridin-3-yl)-9H-purin-9-yl)-3,4-dihydroxyl-N-methyl-tetrahydrofuran-2-formamide], for which the pEC50 at ADORA3 receptor was 7.89; in data set [1] it was over 9.29.

As to `CNC(=O)[C@H]1O[C@@H](n2cnc3c(NCc4cc(C)ccc4F)nc(-c4cccnc4)nc32)[C@H](O)[C@@H]1O` [compound 191, (2S,3S,4R,5R)-5-(6-(2-fluoro-5-methylbenzylamino)-2-(pyridin-3-yl)-9H-purin-9-yl)-3,4-dihydroxyl-N-methyl-tetrahydrofuran-2-formamide], the pEC50 at ADORA3 receptor was 8.28. Further, the “AUC_D” value in data set [2] was 1183.39 kg·ng·h/mL/mg.

Take `CNC(=O)[C@H]1O[C@@H](n2cnc3c(NCc4cc(C)ccc4F)nc(-c4cncc(F)c4)nc32)[C@H](O)[C@@H]1O` [compound 192, (2S,3S,4R,5R)-5-(6-(2-fluoro-5-methylbenzylamino)-2-(5-fluoropyridin-3-yl)-9H-purin-9-yl)-3,4-dihydroxyl-N-methyl-tetrahydrofuran-2-formamide]: the pEC50 on ADORA3 receptor was 8.03. For the same molecule, the “AUC_D” value in data set [2] came to 3329.08 kg·ng·h/mL/mg.

For `CNC(=O)[C@H]1O[C@@H](n2cnc3c(NCc4cc(C)ccc4F)nc(-c4cncc(C)c4)nc32)[C@H](O)[C@@H]1O` [compound 193, (2S,3S,4R,5R)-5-(6-(2-fluoro-5-methylbenzylamino)-2-(5-methylpyridin-3-yl)-9H-purin-9-yl)-3,4-dihydroxyl-N-methyl-tetrahydrofuran-2-formamide], at ADORA3 receptor, the pEC50 is 7.96. For the same molecule, the “AUC_D” value in data set [2] turned out to be 2969.40 kg·ng·h/mL/mg.

As for `CNC(=O)[C@H]1O[C@@H](n2cnc3c(NCc4cc(C)ccc4F)nc(-c4cncc(OC)c4)nc32)[C@H](O)[C@@H]1O` [compound 194, (2S,3S,4R,5R)-5-(6-(2-fluoro-5-methylbenzylamino)-2-(5-methoxypyridin-3-yl)-9H-purin-9-yl)-3,4-dihydroxyl-N-methyl-tetrahydrofuran-2-formamide], the negative-log EC50 (pEC50) at ADORA3 receptor is 7.97. In addition, the “AUC_D” value in data set [2] was found to be 2043.13 kg·ng·h/mL/mg.

For `CNC(=O)[C@H]1O[C@@H](n2cnc3c(NCc4cccc(Cl)n4)nc(-c4cncc(F)c4)nc32)[C@H](O)[C@@H]1O` [compound 227, (2S,3S,4R,5R)-5-(6-(((6-chloropyridin-2-yl)methyl)amino)-2-(5-fluoropyridin-3-yl)-9H-purin-9-yl)-3,4-dihydroxyl-N-methyltetrahydrofuran-2-carboxamide], the pEC50 on ADORA3 receptor is 8.45. Also, the “AUC_D” value in data set [2] is 233.07 kg·ng·h/mL/mg.

As for `CNC(=O)[C@H]1O[C@@H](n2cnc3c(NCc4cc(C)cc(C)c4)nc(-c4cncc(C)c4)nc32)[C@H](O)[C@@H]1O` [compound 231, (2S,3S,4R,5R)-5-(6-((3,5-dimethylbenzyl)amino)-2-(5-methylpyridin-3-yl)-9H-purin-9-yl)-3,4-dihydroxyl-N-methyltetrahydrofuran-2-carboxamide], the negative logarithm of the EC50 (pEC50) on ADORA3 receptor is 7.95. Further, the “AUC_D” value in data set [2] was determined as 17240.04 kg·ng·h/mL/mg.

On to `CNC(=O)[C@H]1O[C@@H](n2cnc3c(NCc4cc(OC)ccn4)nc(-c4cncc(Cl)c4)nc32)[C@H](O)[C@@H]1O` [compound 296, (2S,3S,4R,5R)-5-(2-(5-chloropyridin-3-yl)-6-(((4-methoxypyridin-2-yl)methyl)amino)-9H-purin-9-yl)-3,4-dihydroxyl-N-methyltetrahydrofuran-2-carboxamide], for which the pEC50 was 7.27 at ADORA3 receptor and 8.89 in data set [1].
